How the values were obtained:
Experiment in all cases: Kinase panel profiling
Type in all cases: biochemical
Details in all cases: 10 μM ATP
MSK2/RPS6KA4 = molecular target: T1, MSK2/RPS6KA4 (Homo sapiens, UniProt O75676)
T1 construct: purchased Reaction Biology Corp
Protocol: (§1) Kinase panel profiling was conducted by Reaction Biology Corp. (San Diego, CA, USA). A single dose (1.0 μM) of 6r was tested against 371 recombinant human kinases in the presence of 10 μM ATP.

CK1G3 = molecular target: T2, CK1G3 (Homo sapiens, UniProt Q9Y6M4)
T2 construct: purchased Reaction Biology Corp
Protocol: as §1

TLK2 = molecular target: T3, TLK2 (Homo sapiens, UniProt Q86UE8)
T3 construct: purchased Reaction Biology Corp
Protocol: as §1

CK1epsilon = molecular target: T4, CK1epsilon (Homo sapiens, UniProt P49674)
T4 construct: purchased Reaction Biology Corp
Protocol: as §1

ROCK1 = molecular target: T5, ROCK1 (Homo sapiens, UniProt Q13464)
T5 construct: purchased Reaction Biology Corp
Protocol: as §1

Aurora A = molecular target: T6, Aurora A (Homo sapiens, UniProt O14965)
T6 construct: purchased Reaction Biology Corp
Protocol: as §1

EPHA7 = molecular target: T7, EPHA7 (Homo sapiens, UniProt Q15375)
T7 construct: purchased Reaction Biology Corp
Protocol: as §1

IR = molecular target: T8, IR (Homo sapiens, UniProt P06213)
T8 construct: purchased Reaction Biology Corp
Protocol: as §1

CDK6/cyclin D1 = molecular target: T9, CDK6/cyclin D1 (Homo sapiens, UniProt Q00534)
T9 construct: purchased Reaction Biology Corp
Protocol: as §1

MST1/STK4 = molecular target: T10, MST1/STK4 (Homo sapiens, UniProt Q13043)
T10 construct: purchased Reaction Biology Corp
Protocol: as §1

AKT2 = molecular target: T11, AKT2 (Homo sapiens, UniProt P31751)
T11 construct: purchased Reaction Biology Corp
Protocol: as §1

ACK1 = molecular target: T12, ACK1 (Homo sapiens, UniProt Q07912)
T12 construct: purchased Reaction Biology Corp
Protocol: as §1

PASK = molecular target: T13, PASK (Homo sapiens, UniProt Q96RG2)
T13 construct: purchased Reaction Biology Corp
T13 sequence (Q96RG2 whole entry): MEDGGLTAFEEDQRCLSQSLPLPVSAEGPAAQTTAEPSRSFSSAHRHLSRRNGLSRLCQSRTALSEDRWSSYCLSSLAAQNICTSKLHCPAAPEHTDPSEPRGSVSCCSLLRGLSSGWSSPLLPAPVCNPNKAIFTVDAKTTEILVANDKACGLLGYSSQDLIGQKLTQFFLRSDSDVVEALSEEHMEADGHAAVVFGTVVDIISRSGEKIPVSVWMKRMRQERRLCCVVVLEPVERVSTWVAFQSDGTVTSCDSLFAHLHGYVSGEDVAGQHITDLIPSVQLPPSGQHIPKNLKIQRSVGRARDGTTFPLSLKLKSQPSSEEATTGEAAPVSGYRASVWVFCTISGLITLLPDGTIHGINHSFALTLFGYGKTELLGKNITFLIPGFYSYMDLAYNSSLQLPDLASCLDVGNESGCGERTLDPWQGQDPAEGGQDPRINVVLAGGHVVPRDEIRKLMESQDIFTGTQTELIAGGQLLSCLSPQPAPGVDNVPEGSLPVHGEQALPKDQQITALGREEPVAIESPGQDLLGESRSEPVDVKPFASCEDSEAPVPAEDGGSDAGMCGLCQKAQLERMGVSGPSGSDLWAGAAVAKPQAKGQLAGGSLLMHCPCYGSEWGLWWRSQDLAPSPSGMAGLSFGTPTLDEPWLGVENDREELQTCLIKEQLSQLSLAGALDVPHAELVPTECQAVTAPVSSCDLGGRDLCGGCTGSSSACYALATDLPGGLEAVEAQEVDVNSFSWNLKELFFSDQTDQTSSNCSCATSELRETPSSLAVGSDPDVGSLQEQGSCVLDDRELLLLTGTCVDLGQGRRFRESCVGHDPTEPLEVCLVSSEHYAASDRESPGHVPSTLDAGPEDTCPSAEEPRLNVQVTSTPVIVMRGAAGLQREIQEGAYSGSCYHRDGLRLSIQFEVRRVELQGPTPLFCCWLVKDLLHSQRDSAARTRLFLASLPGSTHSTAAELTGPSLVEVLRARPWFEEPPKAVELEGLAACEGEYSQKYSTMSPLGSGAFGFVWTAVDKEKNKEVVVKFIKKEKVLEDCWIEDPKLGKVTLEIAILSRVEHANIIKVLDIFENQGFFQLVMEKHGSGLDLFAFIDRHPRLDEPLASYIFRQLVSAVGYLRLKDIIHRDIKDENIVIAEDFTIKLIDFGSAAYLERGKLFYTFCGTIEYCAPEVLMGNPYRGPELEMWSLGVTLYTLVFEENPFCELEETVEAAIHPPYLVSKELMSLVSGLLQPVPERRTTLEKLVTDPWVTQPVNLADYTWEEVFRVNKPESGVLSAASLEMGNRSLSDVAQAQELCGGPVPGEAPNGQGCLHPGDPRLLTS
Protocol: as §1

CHK2 = molecular target: T14, CHK2 (Homo sapiens, UniProt O96017)
T14 construct: purchased Reaction Biology Corp
Protocol: as §1

SYK = molecular target: T15, SYK (Homo sapiens, UniProt P43405)
T15 construct: purchased Reaction Biology Corp
Protocol: as §1

PKCzeta = molecular target: T16, PKCzeta (Homo sapiens, UniProt Q05513)
T16 construct: purchased Reaction Biology Corp
Protocol: as §1

MKK6 = molecular target: T17, MKK6 (Homo sapiens, UniProt P52564)
T17 construct: purchased Reaction Biology Corp
T17 sequence (P52564 whole entry): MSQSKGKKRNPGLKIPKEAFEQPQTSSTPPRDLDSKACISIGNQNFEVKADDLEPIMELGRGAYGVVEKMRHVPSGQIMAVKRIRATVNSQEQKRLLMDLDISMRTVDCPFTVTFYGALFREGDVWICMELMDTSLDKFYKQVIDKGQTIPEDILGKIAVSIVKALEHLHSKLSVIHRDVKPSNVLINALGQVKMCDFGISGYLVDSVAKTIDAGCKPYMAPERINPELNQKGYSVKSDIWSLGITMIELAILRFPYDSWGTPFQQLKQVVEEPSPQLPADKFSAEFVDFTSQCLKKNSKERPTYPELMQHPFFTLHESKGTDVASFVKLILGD
Protocol: as §1

LCK2/ICK = molecular target: T18, LCK2/ICK (Homo sapiens, UniProt Q9UPZ9)
T18 construct: purchased Reaction Biology Corp
Protocol: as §1

RAF1 = molecular target: T19, RAF1 (Homo sapiens, UniProt P04049)
T19 construct: purchased Reaction Biology Corp
Protocol: as §1

DMPK = molecular target: T20, DMPK (Homo sapiens, UniProt Q09013)
T20 construct: purchased Reaction Biology Corp
Protocol: as §1

CDK4/cyclin D1 = molecular target: T21, CDK4/cyclin D1 (Homo sapiens, UniProt P11802)
T21 construct: purchased Reaction Biology Corp
T21 sequence (P11802 whole entry): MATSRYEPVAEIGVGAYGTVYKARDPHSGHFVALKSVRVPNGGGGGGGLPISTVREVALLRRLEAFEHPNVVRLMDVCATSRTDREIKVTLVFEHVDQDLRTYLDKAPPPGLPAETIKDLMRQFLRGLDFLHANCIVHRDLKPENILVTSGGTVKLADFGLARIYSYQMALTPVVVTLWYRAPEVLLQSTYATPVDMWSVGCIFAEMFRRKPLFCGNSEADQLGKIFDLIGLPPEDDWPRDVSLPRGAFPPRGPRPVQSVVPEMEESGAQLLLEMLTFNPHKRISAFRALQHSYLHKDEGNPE
T21 sequence (P24385 whole entry partner): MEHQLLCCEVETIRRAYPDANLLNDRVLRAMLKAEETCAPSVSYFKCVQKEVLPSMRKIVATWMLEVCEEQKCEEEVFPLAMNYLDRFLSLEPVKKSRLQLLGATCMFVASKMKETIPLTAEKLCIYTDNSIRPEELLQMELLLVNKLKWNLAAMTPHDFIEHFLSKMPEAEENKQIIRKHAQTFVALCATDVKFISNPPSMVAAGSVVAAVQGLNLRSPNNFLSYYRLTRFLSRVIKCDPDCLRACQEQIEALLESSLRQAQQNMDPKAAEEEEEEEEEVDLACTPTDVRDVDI
Protocol: as §1

HIPK3 = molecular target: T22, HIPK3 (Homo sapiens, UniProt Q9H422)
T22 construct: purchased Reaction Biology Corp
Protocol: as §1

FGFR1 = molecular target: T23, FGFR1 (Homo sapiens, UniProt P11362)
T23 construct: purchased Reaction Biology Corp
Protocol: as §1

ITK = molecular target: T24, ITK (Homo sapiens, UniProt Q08881)
T24 construct: purchased Reaction Biology Corp
Protocol: as §1

PBK/TOPK = molecular target: T25, PBK/TOPK (Homo sapiens, UniProt Q96KB5)
T25 construct: purchased Reaction Biology Corp
Protocol: as §1

CDK2/Cyclin A1 = molecular target: T26, CDK2/Cyclin A1 (Homo sapiens, UniProt P24941)
T26 construct: purchased Reaction Biology Corp
Protocol: as §1

RIPK3 = molecular target: T27, RIPK3 (Homo sapiens, UniProt Q9Y572)
T27 construct: purchased Reaction Biology Corp
Protocol: as §1

CSK = molecular target: T28, CSK (Homo sapiens, UniProt P41240)
T28 construct: purchased Reaction Biology Corp
Protocol: as §1

RIPK5 = molecular target: T29, RIPK5 (Homo sapiens, UniProt Q6XUX3)
T29 construct: purchased Reaction Biology Corp
Protocol: as §1

GLK/MAP4K3 = molecular target: T30, GLK/MAP4K3 (Homo sapiens, UniProt Q8IVH8)
T30 construct: purchased Reaction Biology Corp
Protocol: as §1

PKMYT1 = molecular target: T31, PKMYT1 (Homo sapiens, UniProt Q99640)
T31 construct: purchased Reaction Biology Corp
Protocol: as §1

BRSK1 = molecular target: T32, BRSK1 (Homo sapiens, UniProt Q8TDC3)
T32 construct: purchased Reaction Biology Corp
Protocol: as §1

DAPK1 = molecular target: T33, DAPK1 (Homo sapiens, UniProt P53355)
T33 construct: purchased Reaction Biology Corp
Protocol: as §1

DYRK2 = molecular target: T34, DYRK2 (Homo sapiens, UniProt Q92630)
T34 construct: purchased Reaction Biology Corp
Protocol: as §1

MYLK3 = molecular target: T35, MYLK3 (Homo sapiens, UniProt Q32MK0)
T35 construct: purchased Reaction Biology Corp
Protocol: as §1

MLCK/MYLK = molecular target: T36, MLCK/MYLK (Homo sapiens, UniProt Q15746)
T36 construct: purchased Reaction Biology Corp
Protocol: as §1

PAK4 = molecular target: T37, PAK4 (Homo sapiens, UniProt O96013)
T37 construct: purchased Reaction Biology Corp
T37 sequence (O96013 whole entry): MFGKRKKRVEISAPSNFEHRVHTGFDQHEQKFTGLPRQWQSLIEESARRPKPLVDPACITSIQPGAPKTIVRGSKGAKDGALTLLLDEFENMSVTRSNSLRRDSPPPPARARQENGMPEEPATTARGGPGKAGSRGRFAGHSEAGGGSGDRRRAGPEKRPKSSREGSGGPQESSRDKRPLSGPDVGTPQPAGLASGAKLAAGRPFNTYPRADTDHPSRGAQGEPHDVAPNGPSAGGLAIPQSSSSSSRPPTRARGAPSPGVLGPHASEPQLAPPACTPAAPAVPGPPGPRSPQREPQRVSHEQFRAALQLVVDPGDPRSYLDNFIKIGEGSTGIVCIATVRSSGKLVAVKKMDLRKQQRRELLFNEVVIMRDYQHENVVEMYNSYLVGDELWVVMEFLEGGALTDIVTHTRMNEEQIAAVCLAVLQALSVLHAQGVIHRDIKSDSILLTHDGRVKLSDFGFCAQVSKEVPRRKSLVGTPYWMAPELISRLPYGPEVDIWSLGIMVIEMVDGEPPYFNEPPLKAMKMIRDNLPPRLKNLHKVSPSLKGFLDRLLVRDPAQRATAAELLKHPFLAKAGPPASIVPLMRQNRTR
Protocol: as §1

MARK1 = molecular target: T38, MARK1 (Homo sapiens, UniProt Q9P0L2)
T38 construct: purchased Reaction Biology Corp
T38 sequence (Q9P0L2 whole entry): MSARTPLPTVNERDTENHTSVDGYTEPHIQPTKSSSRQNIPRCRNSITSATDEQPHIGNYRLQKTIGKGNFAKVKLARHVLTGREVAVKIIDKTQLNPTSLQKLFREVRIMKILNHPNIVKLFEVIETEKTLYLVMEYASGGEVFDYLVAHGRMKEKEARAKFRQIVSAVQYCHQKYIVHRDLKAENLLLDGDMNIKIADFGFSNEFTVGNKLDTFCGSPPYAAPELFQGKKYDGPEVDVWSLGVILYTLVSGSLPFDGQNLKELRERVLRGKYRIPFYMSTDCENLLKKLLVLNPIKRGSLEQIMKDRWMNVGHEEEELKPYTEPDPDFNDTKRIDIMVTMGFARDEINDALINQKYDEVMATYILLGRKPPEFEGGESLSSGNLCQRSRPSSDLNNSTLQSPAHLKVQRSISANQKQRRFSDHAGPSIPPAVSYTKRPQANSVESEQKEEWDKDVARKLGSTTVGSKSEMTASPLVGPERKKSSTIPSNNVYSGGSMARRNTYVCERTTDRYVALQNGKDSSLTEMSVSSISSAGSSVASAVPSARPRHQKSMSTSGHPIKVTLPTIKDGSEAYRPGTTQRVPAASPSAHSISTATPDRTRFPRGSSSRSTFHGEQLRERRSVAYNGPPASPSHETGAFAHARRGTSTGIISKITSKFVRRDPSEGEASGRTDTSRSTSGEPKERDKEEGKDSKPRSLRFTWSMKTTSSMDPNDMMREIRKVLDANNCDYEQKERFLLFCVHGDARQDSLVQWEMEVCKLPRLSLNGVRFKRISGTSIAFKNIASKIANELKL
Protocol: as §1

CK1d = molecular target: T39, CK1d (Homo sapiens, UniProt P48730)
T39 construct: purchased Reaction Biology Corp
T39 sequence (P48730 whole entry): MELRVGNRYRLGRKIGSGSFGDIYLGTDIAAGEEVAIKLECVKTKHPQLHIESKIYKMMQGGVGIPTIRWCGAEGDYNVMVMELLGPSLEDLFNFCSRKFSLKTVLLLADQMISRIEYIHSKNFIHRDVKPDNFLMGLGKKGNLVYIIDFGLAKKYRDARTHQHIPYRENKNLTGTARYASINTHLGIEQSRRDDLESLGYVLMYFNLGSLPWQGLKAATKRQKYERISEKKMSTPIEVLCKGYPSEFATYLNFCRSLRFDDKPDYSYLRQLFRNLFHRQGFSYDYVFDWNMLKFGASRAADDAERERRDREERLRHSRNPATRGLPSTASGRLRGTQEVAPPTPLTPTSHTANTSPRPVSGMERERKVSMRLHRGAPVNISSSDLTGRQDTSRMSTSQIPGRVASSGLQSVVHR
Protocol: as §1

MRCKa/CDC42BPA = molecular target: T40, MRCKa/CDC42BPA (Homo sapiens, UniProt Q5VT25)
T40 construct: purchased Reaction Biology Corp
Protocol: as §1

KSR2 = molecular target: T41, KSR2 (Homo sapiens, UniProt Q6VAB6)
T41 construct: purchased Reaction Biology Corp
T41 sequence (Q6VAB6 whole entry): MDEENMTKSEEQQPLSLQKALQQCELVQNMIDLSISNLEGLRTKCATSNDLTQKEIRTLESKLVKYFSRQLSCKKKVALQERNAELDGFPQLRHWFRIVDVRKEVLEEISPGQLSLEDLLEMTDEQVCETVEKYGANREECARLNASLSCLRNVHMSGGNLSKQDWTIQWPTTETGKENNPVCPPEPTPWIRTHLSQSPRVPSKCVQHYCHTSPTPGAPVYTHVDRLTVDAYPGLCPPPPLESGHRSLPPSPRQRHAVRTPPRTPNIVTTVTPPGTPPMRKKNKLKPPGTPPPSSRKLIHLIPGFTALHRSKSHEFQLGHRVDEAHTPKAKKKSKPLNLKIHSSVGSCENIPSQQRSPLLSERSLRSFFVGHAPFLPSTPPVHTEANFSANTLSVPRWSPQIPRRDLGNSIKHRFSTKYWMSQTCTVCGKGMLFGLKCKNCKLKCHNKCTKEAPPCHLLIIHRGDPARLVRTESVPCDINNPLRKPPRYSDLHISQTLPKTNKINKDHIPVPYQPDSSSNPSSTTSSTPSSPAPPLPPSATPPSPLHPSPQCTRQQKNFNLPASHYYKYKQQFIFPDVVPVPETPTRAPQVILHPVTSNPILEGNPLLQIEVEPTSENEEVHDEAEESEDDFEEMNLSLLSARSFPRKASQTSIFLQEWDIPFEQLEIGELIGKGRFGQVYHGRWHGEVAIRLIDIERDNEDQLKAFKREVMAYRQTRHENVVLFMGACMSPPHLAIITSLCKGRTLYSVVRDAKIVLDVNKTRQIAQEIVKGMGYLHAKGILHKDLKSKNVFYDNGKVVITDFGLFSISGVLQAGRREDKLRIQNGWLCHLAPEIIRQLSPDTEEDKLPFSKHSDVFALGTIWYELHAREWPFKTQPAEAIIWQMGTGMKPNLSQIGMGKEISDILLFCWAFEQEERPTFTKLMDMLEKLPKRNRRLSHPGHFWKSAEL
Protocol: as §1

MEK1 = molecular target: T42, MEK1 (Homo sapiens, UniProt Q02750)
T42 construct: purchased Reaction Biology Corp
Protocol: as §1

ULK1 = molecular target: T43, ULK1 (Homo sapiens, UniProt O75385)
T43 construct: purchased Reaction Biology Corp
Protocol: as §1

## Cc1ccc(NC(=O)c2ccc(CN3CCN(C)CC3)c(C(F)(F)F)c2)cc1-c1cnc2sc(N)nc2c1 [6r]
MSK2/RPS6KA4
  inhibition at 1 µM: 17.1%
CK1G3
  inhibition at 1 µM: 32%
TLK2
  inhibition at 1 µM: 0%
CK1epsilon
  inhibition at 1 µM: 24.2%
ROCK1
  inhibition at 1 µM: 0.2%
Aurora A
  inhibition at 1 µM: 0%
EPHA7
  inhibition at 1 µM: 40.7%
IR
  inhibition at 1 µM: 1.9%
CDK6/cyclin D1
  inhibition at 1 µM: 9.1%
MST1/STK4
  inhibition at 1 µM: 4.3%
AKT2
  inhibition at 1 µM: 14%
ACK1
  inhibition at 1 µM: 39.9%
PASK
  inhibition at 1 µM: 4.6%
CHK2
  inhibition at 1 µM: 4.8%
SYK
  inhibition at 1 µM: 3.2%
PKCzeta
  inhibition at 1 µM: 0%
MKK6
  inhibition at 1 µM: 6.6%
LCK2/ICK
  inhibition at 1 µM: 60.8%
RAF1
  inhibition at 1 µM: 99.9%
DMPK
  inhibition at 1 µM: 0%
CDK4/cyclin D1
  inhibition at 1 µM: 4.7%
HIPK3
  inhibition at 1 µM: 0.2%
FGFR1
  inhibition at 1 µM: 20.7%
ITK
  inhibition at 1 µM: 3.8%
PBK/TOPK
  inhibition at 1 µM: 4.3%
CDK2/Cyclin A1
  inhibition at 1 µM: 7.6%
RIPK3
  inhibition at 1 µM: 82.5%
CSK
  inhibition at 1 µM: 41.3%
RIPK5
  inhibition at 1 µM: 4.4%
GLK/MAP4K3
  inhibition at 1 µM: 15%
PKMYT1
  inhibition at 1 µM: 10%
BRSK1
  inhibition at 1 µM: 0%
DAPK1
  inhibition at 1 µM: 10.1%
DYRK2
  inhibition at 1 µM: 0.6%
MYLK3
  inhibition at 1 µM: 0%
MLCK/MYLK
  inhibition at 1 µM: 11%
PAK4
  inhibition at 1 µM: 8.6%
MARK1
  inhibition at 1 µM: 0%
CK1d
  inhibition at 1 µM: 27.3%
MRCKa/CDC42BPA
  inhibition at 1 µM: 0%
KSR2
  inhibition at 1 µM: 0%
MEK1
  inhibition at 1 µM: 14.4%
ULK1
  inhibition at 1 µM: 3.7%

Reference: publication PMC9817970 (Cancers, 2022)
